Assays:
Format in all cases: ADME, Microsome
Liver microsomes [1] = experiment: Metabolic stability in rat liver microsomes assessed as covalent binding at 10 uM after 1 hr by scintillation counting in presence of glutathione
Liver microsomes [2] = experiment: Metabolic stability in rat liver microsomes assessed as covalent binding at 10 uM after 1 hr preincubated for 15 mins with NADPH by scintillation counting
Liver microsomes [3] = experiment: Metabolic stability in human liver microsomes assessed as covalent binding at 10 uM after 1 hr by scintillation counting in absence of NADPH
Liver microsomes [4] = experiment: Metabolic stability in human liver microsomes assessed as covalent binding at 10 uM after 1 hr preincubated for 15 mins with NADPH by scintillation counting
Liver microsomes [5] = experiment: Metabolic stability in rat liver microsomes assessed as covalent binding at 10 uM after 1 hr by scintillation counting in absence of NADPH

Compound: C[C@@H](CO)Oc1cc(Oc2ccc(S(C)(=O)=O)cc2)cc(C(=O)Nc2nccs2)c1
- Stability (Liver microsomes [1]): 50 pmolequiv/mg
- Stability (Liver microsomes [2]): 378 pmolequiv/mg
- Stability (Liver microsomes [3]): 10 pmolequiv/mg
- Stability (Liver microsomes [4]): 715 pmolequiv/mg
- Stability (Liver microsomes [5]): 0 pmolequiv/mg
